Test results: ChEMBL document CHEMBL1143566, “Discovery of a potent and selective inhibitor of cyclin-dependent kinase 4/6” (J Med Chem, 2005)
pIC50: −log10 of the molar value.

Legend:
[1] = molecular target: T1, Cyclin-dependent kinase 4/cyclin D (Homo sapiens, UniProt P11802); experiment: Inhibition of [gamma-32P]-ATP binding to Cyclin dependant kinase 4-cyclinD; assay type: protein-complex assay
[2] = test system: MDA-MB-468; experiment: In vitro inhibitory concentration was measured by the incorporation of [14C]thymidine in (human breast carcinoma) MDA-MB-468 cell line; assay type: functional, cell-based
[3] = test system: MDA-MB-435; experiment: In vitro inhibitory concentration was measured by the incorporation of [14C]thymidine in (human breast carcinoma) MDA-MB-435 cell line; assay type: functional, cell-based
[4] = molecular target: Cyclin-dependent kinase 2/cyclin A (Homo sapiens, UniProt P24941)
Description: Inhibition of Cyclin dependent kinase 2-cyclin A

[5] = test system: MDA-MB-435; experiment: Inhibitory concentration was measured by the incorporation of [14C]-thymidine in (human breast carcinoma) MDA-MB-435 cell line; assay type: functional, cell-based
[6] = molecular target: T1, Cyclin-dependent kinase 4/cyclin D
Description: Inhibition of Cyclin-dependent kinase 4-cyclinD

[7] = test system: MDA-MB-435; experiment: Inhibitory concentration was measured by the incorporation of [14C]thymidine in (human breast carcinoma) MDA-MB-435; assay type: functional, cell-based
[8] = test system: MDA-MB-468; experiment: Inhibitory concentration was measured by the incorporation of [14C]thymidine in (human breast carcinoma) MDA-MB-468 cell line; assay type: functional, cell-based
[9] = molecular target: Fibroblast growth factor receptor (Homo sapiens, UniProt P22607+P11362+P22455+P21802); experiment: Inhibition of Fibroblast growth factor receptor; assay type: protein assay
[10] = Inhibition of Cyclin dependent kinase 2-cyclinA
[11] = Inhibition of PDGF receptor
[12] = molecular target: Cyclin-dependent kinase 2/cyclin E (Homo sapiens, UniProt P24941); experiment: Inhibition of Cyclin dependent kinase 2-cyclin E; assay type: protein-complex assay

Work on `CCOCCOc1cc2cnc(Nc3ccc(N4CCNCC4)cn3)nc2n(C2CCCC2)c1=O` yielded a pIC50 [1] of 7.43.
Work on `CC(=O)c1c(C)c2cnc(Nc3ccc(N4CCNCC4)cc3)nc2n(C2CCCC2)c1=O` yielded a pIC50 [2] of 5.96, a pIC50 [3] of 7.52 and a pIC50 [4] of 6.64.
With `Nc1cc2cnc(Nc3ccc(N4CCNCC4)cn3)nc2n(C2CCCC2)c1=O` the pIC50 [5] was 6.72, the pIC50 [6] was 7.72 and the pIC50 [4] was < 5.30.
`CC(=O)c1c(C)c2cnc(Nc3ccc(N4CCN(C)CC4)cn3)nc2n(C2CCCC2)c1=O` showed a pIC50 [5] of 6.49.
Work on `Cc1c(Br)c(=O)n(C2CCCC2)c2nc(Nc3ccc(N4CCC(O)CC4)cn3)ncc12` yielded a pIC50 [7] of 5.85.
For `CC(=O)c1c(C)c2cnc(Nc3ccc(N4CC(C)NC(C)C4)cn3)nc2n(C2CCCC2)c1=O` (stereo unspecified), the pIC50 [7] was 6.24.
`Cc1c(Br)c(=O)n(C2CCCC2)c2nc(Nc3ccc(N4CC(C)NC(C)C4)cn3)ncc12` (stereo unspecified) showed a pIC50 [7] of 6.24.
In the case of `Cc1c(Br)c(=O)n(C2CCCC2)c2nc(Nc3ccccn3)ncc12`, the pIC50 [6] was < 5.30.
In the case of `Cc1c(Br)c(=O)n(C2CCCC2)c2nc(Nc3ccc(N4CCCNCC4)cn3)ncc12`, the pIC50 [6] was < 5.30 and the pIC50 [4] was < 5.30.
In the case of `CC(=O)c1c(C)c2cnc(Nc3ccc(N4CCNCC4)cn3)nc2n(C2CCCC2)c1=O` [PALBOCICLIB], the pIC50 [5] was 6.80 and the pIC50 [8] was < 5.52.
`CC(=O)c1c(C)c2cnc(Nc3ccc(N4CCC(O)CC4)cn3)nc2n(C2CCCC2)c1=O` showed a pIC50 [5] of 6.70.
For `CCOCc1cc2cnc(Nc3ccc(N4CCNCC4)cn3)nc2n(C2CCCC2)c1=O`, the pIC50 [5] was 6.00.
For `O=c1c(CO)cc2cnc(Nc3ccc(N4CCNCC4)cn3)nc2n1C1CCCC1`, the pIC50 [5] was 6.25.
Work on `O=c1c(Br)cc2cnc(Nc3ccc(N4CCNCC4)cc3)nc2n1C1CCCC1` yielded a pIC50 ([9]; read-out: IC50) of 7.10, a pIC50 [5] of 7.70 and a pIC50 [8] of 6.22.
In the case of `CC(=O)c1c(C)c2cnc(Nc3ccc(N4CCCCC4)cn3)nc2n(C2CCCC2)c1=O`, the pIC50 [7] was 5.71.
`O=c1ccc2cnc(Nc3ccccc3)nc2n1C1CCCC1` gave a pIC50 [10] of 7.92.
Work on `Cc1cc2cnc(Nc3ccc(N4CCNCC4)cn3)nc2n(C2CCCC2)c1=O` yielded a pIC50 [5] of 6.54.
Work on `CC(=O)c1cc2cnc(Nc3ccc(N4CCNCC4)cn3)nc2n(C2CCCC2)c1=O` yielded a pIC50 [7] of 5.56.
Compound `CCOC(=O)c1c(C)c2cnc(Nc3ccc(N4CCNCC4)cn3)nc2n(C2CCCC2)c1=O` has a pIC50 [6] of 7.31.
With `CC(=O)c1c(C)c2cnc(Nc3ccc(N4C(C)COCC4C)cn3)nc2n(C2CCCC2)c1=O` (stereo unspecified) the pIC50 [6] was 7.52, the pIC50 [3] was 5.69 and the pIC50 [4] was < 5.30.
In the case of `O=c1c(Br)cc2cnc(Nc3ccc(N4CCNCC4)cn3)nc2n1C1CCCC1`, the IC50 [9] was > 5000 nM, the pIC50 [11] was < 5.30 and the pIC50 [5] was 7.05. For the same compound, the pIC50 [12] was < 5.30, the pIC50 [8] was < 5.52 and the pIC50 [4] was < 5.30.
With `CC(=O)c1c(C)c2cnc(Nc3ccc(N4CCCNCC4)cn3)nc2n(C2CCCC2)c1=O` the pIC50 [5] was 7.15.
For `CC(=O)c1c(C)c2cnc(Nc3ccc(N4CCC(N)C4)cn3)nc2n(C2CCCC2)c1=O` (stereo unspecified), the pIC50 [5] was 6.47.
`CC(=O)c1c(C)c2cnc(Nc3ccc(N4CCNC(C)(C)C4)cn3)nc2n(C2CCCC2)c1=O` gave a pIC50 [7] of 6.38.
With `O=c1c(F)cc2cnc(Nc3ccc(N4CCNCC4)cn3)nc2n1C1CCCC1` the pIC50 [5] was 5.96.
Work on `COCc1cc2cnc(Nc3ccc(N4CCNCC4)cn3)nc2n(C2CCCC2)c1=O` yielded a pIC50 [5] of 6.48, a pIC50 [6] of 7.89 and a pIC50 [4] of 5.42.
Work on `COCCOCc1cc2cnc(Nc3ccc(N4CCNCC4)cn3)nc2n(C2CCCC2)c1=O` yielded a pIC50 [5] of 5.67.
Work on `COCCN(CCOC)c1ccc(Nc2ncc3c(C)c(C(C)=O)c(=O)n(C4CCCC4)c3n2)nc1` yielded a pIC50 [6] of 7.29 and a pIC50 [4] of 5.69.
Compound `CC(=O)c1c(C)c2cnc(Nc3ccc(N4CCOCC4)cn3)nc2n(C2CCCC2)c1=O` has a pIC50 [7] of 6.66.
For `CC(C)n1c(=O)ccc2cnc(Nc3ccc(N4CCNCC4)cn3)nc21`, the pIC50 [6] was < 5.30.
For `CCc1cc2cnc(Nc3ccc(N4CCNCC4)cn3)nc2n(C2CCCC2)c1=O`, the pIC50 [5] was 5.97, the pIC50 [6] was 7.66 and the pIC50 [4] was < 5.30.
